Assay results published in patent US20240317828A1, “T CELL ACTIVATING IMMUNOTHERAPEUTIC FOR TREATMENT OF MUCIN 1 PROTEIN EXPRESSING HUMAN CANCERS” (PDS BIOTECHNOLOGY CORPORATION, priority 2022, published 2024).
Where no end group is shown, it is not given here.

Assays:
[1] = test system: MUC1 antigen-specific T cells; assay: ELISPOT of MUC1 antigen-specific T cells in spleens of vaccinated HLA-A2 transgenic mice; format: in vivo, HLA-A2 expressing transgenic mice (AAD mice); conditions: for antigen delivery to dendritic cells and immune cell activation: FIGS. 4 and 5, anionic SSEEDE N-terminal extension, formulated with R-DOTAP nanoparticles and micellar mixture of six lipidated peptides; for antigen strength (immune response): lipidated peptide in the micellar peptide antigen component of the R-DOTAP vaccine
Experimental: As illustrated in FIG. 4 HLA-A2 specific CD8 T cell responses to formulations including peptide antigen SSEEDE-C1A (SEQ ID NO:18) and SSEEDE-C2A (SEQ ID NO:19) formulated with R-DOTAP nanoparticles and a micellar mixture with six lipidated peptide agonist antigens, pC3A: (SEQ ID NO:15), pV1A: (SEQ ID NO:2), pV2A: (SEQ ID NO:3), pC5A: (SEQ ID NO:4), pC6A: (SEQ ID NO:5), pP93L: (SEQ ID NO: 16) were evaluated. […] The efficacy of these vaccine formulations in generating T cell responses was measured by dosing HLA-A2 expressing transgenic mice (AAD mice) with two 0.1 ml injections of the vaccine delivered subcutaneously on day 0 and day 7. Negative control groups mice were vaccinated with MUC1 peptides formulated in sucrose buffer. Immune responses specific to vaccine formulation were measured in an ELISPOT assay by enumerating MUC1 antigen-specific T cells, in triplicate wells, in the spleens obtained from vaccinated mice. Each bar in the graph represents the mean SFU per 250,000 splenocytes for a group of vaccinated mice. Error bars represent mean±SEM for five mice in each group. For identifying MUC1-specific T cells, splenocytes were stimulated with peptide sequences C1A (SEQ ID NO:9: YLAIVYLIAL), C2A (SEQ ID NO:10), V1A (SEQ ID NO:13), V2A (SEQ ID NO:14:) C3A (SEQ ID NO:12) and p93L (SEQ ID NO:11)
As shown in FIG. 5 HLA-A2 specific CD8 T cell responses to formulations including peptide antigen SSEEDE-C1A (SEQ ID NO:9) and SSEEDE-C2A ([…]) formulated with R-DOTAP nanoparticles and a micellar mixture with six lipidated peptide agonist antigens, pC3A: (SEQ ID NO:15), pV1A: (SEQ ID NO:2), pV2A: (SEQ ID NO:3), pC5A: (SEQ ID NO:4), pC6A: (SEQ ID NO:5), pP93L: (SEQ ID NO:16) were assessed. […] The efficacy of these vaccine formulations in generating T cell responses was measured by dosing HLA-A2 expressing transgenic mice (AAD mice) with two 0.1 ml injections of the vaccine delivered subcutaneously on day 0 and day 7. Negative control groups mice were vaccinated with MUC1 peptides formulated in sucrose buffer. Immune responses specific to vaccine formulation were measured in an ELISPOT assay by enumerating MUC1 antigen-specific T cells, in triplicate wells, in the spleens obtained from vaccinated mice. Each bar in the graph represents the mean SFU per 250,000 splenocytes for a group of vaccinated mice. Error bars represent mean±SEM for five mice in each group. For identifying MUC1-specific T cells, splenocytes were stimulated with peptide sequences C1A (SEQ ID NO:9: YLAIVYLIAL), C2A (SEQ ID NO:10), V1A (SEQ ID NO:13), V2A (SEQ ID NO:14) C3A (SEQ ID NO:12) and p93L (SEQ ID NO:11).
Control peptide antigen formulations were prepared with 0.5 ml of Montanide plus CpG, or “NCI adjuvant” formulation consisting of 50 μg/ml GM-CSF, 20 μg/ml IL-12, 0.8 mg/ml HBV core (128-140) peptide in incomplete Freund's adjuvant. The efficacy of these vaccine formulations in generating T cell responses was measured by dosing HLA-A2 expressing transgenic mice (AAD mice) with two 0.1 ml injections of the vaccine delivered subcutaneously on day 0 and day 7. Control group mice were vaccinated with MUC1 peptides formulated in sucrose buffer alone. Immune responses specific to vaccine formulation were measured in an ELISPOT assay by enumerating MUC1 antigen-specific T cells, in triplicate wells, in the spleens obtained from vaccinated mice. Each data point in the graph represents the mean SFU per 250,000 splenocytes in vaccinated mice. Error bars represent mean±SEM for five mice in each group. For identifying MUC1-specific T cells, splenocytes were stimulated with peptide sequences C1A (SEQ ID NO:9: YLAIVYLIAL).
Control peptide antigen formulations were prepared with 0.5 ml of Montanide plus CpG, or “NCI adjuvant” formulation consisting of 50 μg/ml GM-CSF, 20 μg/ml IL-12, 0.8 mg/ml HBV core (128-140) peptide in incomplete Freund's adjuvant. […]

[2] = test system: HLA-A2, A3, A11 and A24; assay: MHC-binding specificity of MUC1 peptide antigens (HLA binding / HLA affinity); set-up: species or system human; conditions: agonist sequence; HLA allele the peptide binds; listed as VIA
Text: Within the human mucin 1 oncoprotein multiple high affinity MHC-binding peptide antigens specific for HLA-A2, A3, A11 and A24 have been identified (Table 1). MHC-binding peptide antigens specific for HLA-A2 have been identified: YLAIVYLIAL (SEQ ID NO:9, C1A), YLIALAVCQV (SEQ ID NO:10, C2A), YLAPPAHGV (SEQ ID NO:13, VIA) and YLDTRPAPV (SEQ ID NO:14, V2A).

[3] = Aqueous solubility of peptide antigens; conditions: unmodified hydrophobic agonist peptides
[4] = FIG. 8, long peptide mixed with R-DOTAP

With “SSEEDE-YLAIVYLIAL (SSEEDEYLAIVYLIAL) [SSEEDE-C1A, C1A with cleavable anionic N-terminal extension SSEEDE]” the “antigen delivery to dendritic cells and immune cell activation” value [1] was “effective delivery”.

With “YLDTRPAPV (not fully specified) [V2A, MUC1 agonist peptide antigen]” the “antigen strength (immune response)” value ([1]; FIGS. 3 and 7) was “strong antigens”.

With “YLAPPAHGV (not fully specified) [V1A, MUC1 agonist peptide antigen]” the “HLA Binding” value [2] was “HLA-A2” and the “antigen strength (immune response)” value ([1]; FIGS. 3 and 7) was “strong antigens”.

With “KSS-YLAPPAHGV (not fully specified; lipidated; SITE 1 Epsilon-palmitoyl modified residue) [pV1A, lipidated MUC1 agonist peptide]” the “antigen strength (immune response)” value ([1]; FIGS. 3 and 7) was “strong antigens”.

In the case of “KSS-YLDTRPAPV (not fully specified; lipidated; SITE 1 Epsilon-palmitoyl modified residue) [pV2A, lipidated MUC1 agonist peptide]”, the “antigen strength (immune response)” value ([1]; FIGS. 3 and 7) was “strong antigens”.

In the case of “YLIALAVCQVRRKNYGQLDIFPARDKYHPMSEYAL- [YL35]”, the C2A response [1, 4] was “did not generate a significant C2A response”.

In the case of “YLAIVYLIALAVCQVRRKNYGQLDIFPARDKYHPMSEYAL [YL40]”, the “antigen specific responses to antigens C1A and C2A” value ([1]; FIG. 6, long peptide with lipidated peptide micelles and 3 mg R-DOTAP in 1 ml) was “strong antigen specific responses”, the “C1A response (activity)” value [1, 4] was “induces a significant C1A response” and the “C1A specific T-cell responses” value ([1]; FIGS. 6 and 7, long peptide delivered with R-DOTAP nanoparticles) was “high level detection”.

With “SSEEDE-YLIALAVCQV (SSEEDEYLIALAVCQV) [SSEEDE-C2A, C2A with cleavable anionic N-terminal extension SSEEDE]” the “antigen delivery to dendritic cells and immune cell activation” value [1] was “effective delivery”.

For YLAIVYLIAL [C1A], the “C1A-specific T cell response (immunoactivity)” value ([1]; FIG. 1, peptide inserted into lipid bilayer of R-DOTAP nanoparticle, two 0.1 ml s.c. injections day 0 and 7, splenocytes stimulated with C1A) was “effective immunoactivity”, the immune response ([1]; FIG. 8, short peptides encapsulated (incorporated into the R-DOTAP bilayer)) was “did generate a significant response” and the immune response ([1]; FIG. 8, short peptides mixed with R-DOTAP) was “did not generate a significant response”. The “immune response (HLA-A2 specific CD8 T cell)” value ([1]; FIGS. 3 and 7, peptides inserted into R-DOTAP nanoparticle lipid bilayer, with micellar lipidated V1A/V2A, 3 mg R-DOTAP per ml) was “strong immune responses” and the “generation of immune responses” value ([1]; peptide included in antigen mixtures mixed/formulated with R-DOTAP nanoparticles (not inserted in bilayer)) was “ordinarily inactive”.

In the case of YLIALAVCQV [C2A, YLIALAVCQV], the aqueous solubility [3] was “limited aqueous solubility”.
